Results on 39 molecules are retold here after patent US20200237766A1, “PKM2 ACTIVATORS IN COMBINATION WITH REACTIVE OXYGEN SPECIES FOR TREATMENT OF CANCER” (TOLERO PHARMACEUTICALS, INC., priority 2017, published 2020).

Series [1] has as its system A549 cells. As to the kind of experiment: GSH-Glo glutathione level assay in A549 cells. In kind it is cell-based, human. As to conditions: treated 48 hours, even at concentrations as low as 0.1 μM. How it is done:
Cells were treated for 48 hours, and then glutathione levels were determined using a GSH-Glo assay kit and procedure from Promega.

The subject of the next series is A549 lung cancer cells. As to the kind of experiment: A549 xenograft study in athymic nude mice (Example 7), tumor volume. In kind it is in vivo. As to conditions: combination of doxorubicin 2 mg/kg every 2 days and Compound 91 200 mg/kg every day. How it is done: A xenograph study was performed using A549 lung cancer cells to interrogate the in vivo synergy between a representative ROS-producing anti-cancer drug and a PKM2 activator. Mice (6-8 week old female athymic nude) were housed under standard conditions, and allowed food and water ad libitum and injected with 1×10^7 A549 cells per mouse.
(§1) Tumor volume and body weights were measured and recorded twice weekly (FIGS. 7A and 7B, respectively). Upon completion of the study, mice were euthanized and tumor tissues were harvested.

Series [2] in a line: Body weight in A549 xenograft study (Example 7). In kind it is in vivo. As to conditions: combination of doxorubicin 2 mg/kg every 2 days and Compound 91 200 mg/kg every day, athymic nude mice. How it is done:
A xenograph study was performed using A549 lung cancer cells to interrogate the in vivo synergy between a representative ROS-producing anti-cancer drug and a PKM2 activator. Mice (6-8 week old female athymic nude) were housed under standard conditions, and allowed food and water ad libitum and injected with 1×10^7 A549 cells per mouse. […] Compound 91 was administered orally at a concentration of 200 mg/kg every day.
as §1

The subject of series [3] is A549 human lung cancer cells. As to the kind of experiment: Subcutaneous A549 human lung cancer xenograft model in BALB/c nude mice (Example 8). The settings on record: Group 2: Doxorubicin 2 mg/kg i.v. Q2D × 3 weeks + vehicle p.o. In kind it is in vivo, Mus musculus. As for the experimental part:
A549 human lung cancer cells were inoculated in BALB/c nude mice and treatment was initiated when tumors reached a mean volume of approximately 100 mm^3.
4.5 Randomization 60 mice were enrolled in the study. All animals were randomly allocated to the 6 different study groups. […] Randomization was performed based on “Matched distribution” randomization method using multi-task method (StudyDirector™ software, version 3.1.399.19) on day 13.
After tumor cell inoculation, the animals were checked daily for morbidity and mortality. At the time of routine monitoring, the animals were checked for any effects of tumor growth and treatments on behavior such as mobility, food and water consumption, body weight gain/loss (body weight was measured twice per week, or based on request after randomization), and any other abnormalities. Mortality and observed clinical signs were recorded for individual animals.
Tumor volumes were measured twice weekly in two dimensions using a caliper, and the volume was expressed in mm^3 using the formula: V=(L×W×W)/2, where V is tumor volume, L is tumor length (the longest tumor dimension) and W is tumor width (the longest tumor dimension perpendicular to L).
Tumor weight was measured at the end of study based on the protocol. Dosing as well as tumor and body weight measurement were conducted in a Laminar Flow Cabinet.
Statistical analysis of differences in mean tumor volume among the groups was conducted by Independent-Samples T Test using the data collected.
All data were analyzed with SPSS (Statistical Product and Service Solutions) version 18.0 (IBM, Armonk, N.Y., U.S.). […] All tests were two-sided. P<0.05 was considered to be statistically significant.

The test system of series [4] is A549 cells. As to the kind of experiment: Cell-titer-Glo cell viability, A549 cells. In kind it is cell-based, human.
A further series deals with PKM2 (Homo sapiens, UniProt P14618). As to the kind of experiment: PKM2 activation biochemical assay (AC50 / max. response vs fructose 1,6-bisphosphate). As to conditions: for Max. Resp. (%): % maximum response in a biochemical assay as compared with Fructose 1,6-bisphosphate; for AC50: biochemical assay, read-out: PKM2 AC50.
PKM2, sequence (P14618 whole entry): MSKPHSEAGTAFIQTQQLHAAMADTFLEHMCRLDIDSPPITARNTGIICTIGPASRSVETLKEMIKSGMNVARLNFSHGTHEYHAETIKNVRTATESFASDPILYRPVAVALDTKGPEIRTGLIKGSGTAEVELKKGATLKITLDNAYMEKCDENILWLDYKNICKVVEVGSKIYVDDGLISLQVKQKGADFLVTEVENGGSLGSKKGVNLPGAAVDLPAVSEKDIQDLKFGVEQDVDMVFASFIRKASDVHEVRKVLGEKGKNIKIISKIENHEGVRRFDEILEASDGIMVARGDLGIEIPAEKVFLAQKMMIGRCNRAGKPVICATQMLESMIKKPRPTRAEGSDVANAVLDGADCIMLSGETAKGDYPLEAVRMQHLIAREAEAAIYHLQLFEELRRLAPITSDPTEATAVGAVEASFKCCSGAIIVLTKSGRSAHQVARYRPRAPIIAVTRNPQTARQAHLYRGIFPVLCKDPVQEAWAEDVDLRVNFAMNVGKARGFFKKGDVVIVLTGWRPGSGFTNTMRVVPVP
The test system of the next series is Panc1 cells. As to the kind of experiment: Cell-titer-Glo cell viability, Panc1 cells. Type of series: cell-based. The settings on record: Compound 91 at 4 μM. As for the experimental part:
A549 and Pancl cells were plated using 384-well plates at a density of 1,200 cells per well. Cells were plated in RPMI media and allowed to adhere for 24 hours at 37° C. […] Cells were also treated with Compound 91 alone as a control. Cell viability was determined according to the Cell-titer-Glo assay kit and protocol from Promega Biosciences, LLC (Madison, Wis.).
A549 and Panc1 cells were plated according to the procedure described in Example 1. Cells were treated using a concentration gradient of rapamycin (FIGS. 5A-B) or Vosaroxin (a TOPOII poison; FIG. 5C), both in the presence and absence of Compound 91 at a concentration of 4 μM in replicates of 7 per condition. Cell viability was determined using the Cell-titer-Glo assay kit according to the procedure described in the examples above.

[5] abbreviates: Homo sapiens, A549 cells, anti-cancer drug alone, Cell-titer-Glo, read-out: EC50, cell viability.

Counter-ions that a name gives are not always drawn. Like-named read-outs stand apart in the source and are kept apart here.

Regarding `Nc1cccc(F)c1CN(CCC1CCS(=O)(=O)CC1)C(=O)c1cc(C(F)(F)F)n[nH]1` [Compound 91], the “glutathione levels (GSH-Glo)” value in the series with A549 cells [1] is recorded as “decreased levels of glutathione”. In the series on A549 lung cancer cells, the tumor volume entry is “best reduction of tumor volume”. Further, the body weight entry in series [2] is “no significant body weight reduction or fluctuation”.

For the molecule `O=S(=O)(c1ccc2c(c1)OCCO2)N1CCN(S(=O)(=O)c2c(F)cccc2F)CC1` [DASA, reference compound], the “glutathione levels (GSH-Glo)” value in the series with A549 cells [1] is listed as “decreased levels of glutathione”.

As for `COc1cccc2c1C(=O)c1c(O)c3c(c(O)c1C2=O)C[C@@](O)(C(=O)CO)C[C@@H]3O[C@H]1C[C@H](N)[C@H](O)[C@H](C)O1` [Doxorubicin, doxorubicin, reference compound], in series [3] (Mean ± SEM), the “Tumor Size (mm^3) on day 33” value stood at 723.15 ± 129.91 mm^3 and the “Tumor Weight (mg) on day 33” value stood at 676.9 ± 107.8 mg. Also, in series [3] (day 33), the “T/C (%) (tumor size)” value is listed as 93%, the “T/C (%) (tumor weight)” value is listed as 91%, the “TGI (%) (tumor size)” value is 7% and the “TGI (%) (tumor weight)” value is 9%.

Take `C=CCNc1c(O)cc2c(O)c1C[C@@H](C)C[C@H](OC)[C@H](O)[C@@H](C)/C=C(\C)[C@H](OC(N)=O)[C@@H](OC)/C=C\C=C(/C)C(=O)N2` [IPI-504, retaspimycin hydrochloride]: the EC50 (in general, the concentration at which the effect is half-maximal) in the series on A549 cells [4] (Homo sapiens, A549, read-out: EC50, cell viability) was found to be 59.9 nM.

Consider `COc1ccc(C(=O)CCSC(=S)NCc2cccnc2)cc1` [PMA16], for which, at PKM2, the “Max. Resp. (%)” value is 63% and the AC50 (usually the concentration giving half of the maximal activity seen) is 11200 nM.

As for `O=C(CCSC(=S)NCc1cccnc1)c1ccc(C(F)(F)F)cc1` [PMA17], on PKM2, the “Max. Resp. (%)” value is 23% and the AC50 is more than 20000 nM.

On to `COc1ccccc1C(=O)CCSC(=S)NCc1cccnc1` [PMA18], for which, on PKM2, the “Max. Resp. (%)” value worked out at 88% and the half-maximal activity concentration (AC50) came out at 3930 nM.

As for `O=C(CCSC(=S)NCc1cccnc1)c1ccccc1Cl` [PMA19], at PKM2, the “Max. Resp. (%)” value is reported as 63% and the AC50 was 5610 nM.

Consider `O=C(CCSC(=S)NCc1cccnc1)c1ccc(F)c(F)c1` [PMA21], for which, at PKM2, the “Max. Resp. (%)” value stood at 42% and the half-maximal activity concentration (AC50) was more than 20000 nM.

On to `COc1cc(C(=O)CCSC(=S)NCc2cccnc2)cc(OC)c1OC` [PMA22], for which, at PKM2, the “Max. Resp. (%)” value is listed as 131% and the AC50 amounted to 10100 nM.

As to `O=C(CCSC(=S)NCc1cccnc1)c1ccco1` [PMA25], at PKM2, the “Max. Resp. (%)” value turned out to be 107% and the concentration at half-maximal activity (AC50) amounted to 4300 nM.

For the molecule `O=C(CCSC(=S)NCc1cccnc1)c1cccs1` [PMA26], at PKM2, the “Max. Resp. (%)” value is 20% and the AC50 is more than 20000 nM.

For the molecule `O=C(CCSC(=S)NCc1cccnc1)c1ccc[nH]1` [PMA27], at PKM2, the “Max. Resp. (%)” value is recorded as 126% and the AC50 was more than 20000 nM.

Regarding `O=C(CCSC(=S)NCc1cccnc1)c1nccs1` [PMA28], at PKM2, the “Max. Resp. (%)” value worked out at 72% and the AC50 was 3560 nM.

Consider `O=C(CCSC(=S)NCc1cccnc1)c1cccnc1` [PMA29], for which, at PKM2, the “Max. Resp. (%)” value is 106% and the AC50 was 3700 nM.

On to `O=C(CCSC(=S)NCc1cccnc1)c1c[nH]c2ccccc12` [PMA31], for which the AC50 on PKM2 was more than 20000 nM.

For the molecule `O=C(CCSC(=S)NCc1cccnc1)c1c[nH]c2ncccc12` [PMA32], on PKM2, the “Max. Resp. (%)” value was 182% and the AC50 came out at 1000 nM.

In the case of `O=C(CCSC(=S)NCc1cccnc1)c1cnc2ccccn12` [PMA33], on PKM2, the “Max. Resp. (%)” value amounted to 101% and the AC50 was determined as 18100 nM.

With `O=C(CCSC(=S)NCc1cccnc1)c1cc[nH]c1` [PMA35], on PKM2, the “Max. Resp. (%)” value is listed as 30% and the half-maximal activity concentration (AC50) stood at 4340 nM.

With `Cc1ccc2nc(Cn3c(Cc4ccccc4)nc4ccccc43)cc(=O)n2c1` [PP1], on PKM2, the “Max. Resp. (%)” value is recorded as 148% and the AC50 worked out at 3500 nM.

As to `Cc1ccc2nc(Cn3c(C)nc4ccccc43)cc(=O)n2c1` [PP2], the “Max. Resp. (%)” value at PKM2 turned out to be 73%.

Regarding `Cc1ccc2nc(Cn3cnc4ccccc43)cc(=O)n2c1` [PP3], at PKM2, the “Max. Resp. (%)” value is 149% and the concentration at half-maximal activity (AC50) was 755 nM.

Consider `O=c1cc(Cn2cnc3ccccc32)nc2ccccn12` [PP4], for which, on PKM2, the “Max. Resp. (%)” value is 161% and the AC50 came to 340 nM.

Consider `Cc1cccc2nc(Cn3cnc4ccccc43)cc(=O)n12` [PP8], for which the half-maximal activity concentration (AC50) at PKM2 was found to be 159 nM. Also, the “glutathione levels (GSH-Glo)” value in the series on A549 cells [1] was “decreased levels of glutathione”.

Take `Cc1ccn2c(=O)cc(Cn3cnc4ccccc43)nc2c1` [PP9]: the AC50 on PKM2 amounted to 216 nM.

Consider `O=c1cc(Cn2cnc3ccccc32)nc2ccc(Cl)cn12` [PP10], for which the AC50 at PKM2 is 219 nM.

Regarding `CCc1ccc(C)n2c(=O)cc(Cn3cnc4ccccc43)nc12` [PP11], the AC50 at PKM2 stood at 120 nM.

In the case of `COc1ccc2nc(Cn3cnc4ccccc43)cc(=O)n2c1` [PP12], the AC50 on PKM2 came out at 470 nM.

On to `Cc1cccn2c(=O)cc(Cn3cnc4ccccc43)nc12` [PP13], for which, at PKM2, the AC50 was 145 nM.

With `Cc1sc2nc(Cn3cnc4ccccc43)cc(=O)n2c1C` [PP14], on PKM2, the half-maximal activity concentration (AC50) turned out to be 86 nM.

As to `O=c1cc(Cn2cnc3ccccc32)nc2scc(-c3ccccc3)n12` [PP15], the concentration at half-maximal activity (AC50) at PKM2 was determined as 1030 nM.

Turning to `Cc1csc2nc(Cn3cnc4ccccc43)cc(=O)n12` [PP16], at PKM2, the AC50 turned out to be 127 nM.

Take `Cc1cn2c(=O)cc(Cn3cnc4ccccc43)nc2s1` [PP17]: the concentration at half-maximal activity (AC50) on PKM2 is 466 nM.

In the case of `O=c1cc(Cn2cnc3ccccc32)nc2sccn12` [PP18], at PKM2, the AC50 stood at 266 nM.

`CCc1nn2c(=O)cc(Cn3cnc4ccccc43)nc2s1` [PP19]: the AC50 on PKM2 came to 4760 nM.

Regarding `COc1cccc(NS(=O)(=O)c2cc3c(cc2Cl)NC(=O)CO3)c1` [PP20], at PKM2, the “Max. Resp. (%)” value came out at 108% and the AC50 was 153 nM.

Consider `CN[C@H]1CN(c2ccc3c(=O)c(C(=O)O)cn(-c4nccs4)c3n2)C[C@@H]1OC` [Vosaroxin], for which the “cell viability: activity in presence vs absence of Compound 91” value is on record as “no significant change” in the series on A549 cells [4] (A549 cells, Compound 91 at 4 μM, Cell-titer-Glo) and “no significant change” in the series on Panc1 cells.

For the molecule `CC(C)C[C@H](NC(=O)[C@H](Cc1ccccc1)NC(=O)c1cnccn1)B(O)O` [bortezomib], in the series on A549 cells [4] (A549 cells, Compound 91 at 4 μM vs drug alone), the “decrease in EC50 when used in combination with Compound 91” value is given as approximately 2 fold. Further, the EC50 in the series with A549 cells [4] (setting [5]) came to 43.4 nM; in the series on A549 cells [4] (Homo sapiens, A549 cells, in the presence of Compound 91 at 4 μM, Cell-titer-Glo, read-out: EC50, cell viability, in combination with Compound 91), 27 nM.

`CNC(=O)c1cc(Oc2ccc(NC(=O)Nc3ccc(Cl)c(C(F)(F)F)c3)cc2)ccn1` [sorafenib]: the 50% effective concentration (EC50) in the series with A549 cells [4] (A549 cells, in the presence of Compound 91 at 4 μM, Cell-titer-Glo, read-out: EC50, cell viability, in combination with Compound 91) was 7130 nM; in the series with A549 cells [4] (setting [5]) it was 30100 nM.
